Source: patent US20060142180A1, “Cholinergic modulation of microglial activation via alpha-7 nicotinic receptors” (priority 2003, published 2006)
Read-outs that look alike come from different tables or passages of the source.

Legend:
[1] = test system: LPS-induced TNF-α release in primary cultured microglial cells; experiment: LPS-induced TNF-α release from primary cultured microglial cells (ELISA); type: cell-based, mouse
Method: Murine primary culture microglial cells were isolated from mouse cerebral cortices (C57BL/6 mice) and cultured as previously described (Tan et al. 2000b). To investigate whether α7 nAChR subunits are expressed in microglial cells, we first isolated total RNA from N9 microglial cell line and primary cultured microglial cells for RT-PCR analysis.
To determine whether ACh or nicotine could inhibit LPS-induced TNF-α production in these microglial cells, the inventors pre-incubated microglial cells with ACh or nicotine for 30 minutes and challenged these cells with LPS for 4 hours. […] Primary cultured microglial cells pretreated with ACh (FIG. 3B) or nicotine […] at a range of dose as indicated for 30 minutes and challenged with LPS (100 ng/mL) for 4 hours. Microglial TNF-α release was measured by ELISA.

α7 nAChR subunit = α7 nAChR subunit (Mus musculus, UniProt P49582)
α7 nAChR subunit, sequence (P49582 23-502): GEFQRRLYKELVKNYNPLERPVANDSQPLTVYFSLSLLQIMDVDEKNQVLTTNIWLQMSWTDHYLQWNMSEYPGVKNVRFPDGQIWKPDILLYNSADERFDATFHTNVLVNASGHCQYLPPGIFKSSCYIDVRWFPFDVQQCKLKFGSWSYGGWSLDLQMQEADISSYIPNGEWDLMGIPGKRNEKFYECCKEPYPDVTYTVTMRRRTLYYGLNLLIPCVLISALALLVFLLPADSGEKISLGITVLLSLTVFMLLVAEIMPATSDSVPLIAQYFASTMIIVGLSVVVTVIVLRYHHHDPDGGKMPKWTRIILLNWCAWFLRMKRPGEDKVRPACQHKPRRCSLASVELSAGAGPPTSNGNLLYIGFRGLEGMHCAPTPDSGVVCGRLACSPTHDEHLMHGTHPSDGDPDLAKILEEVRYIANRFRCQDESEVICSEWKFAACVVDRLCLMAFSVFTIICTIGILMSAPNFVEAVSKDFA

α-bungarotoxin
TNF-α release, antagonist plus LPS versus LPS alone [1]: no significances

CNC1(C)C2CCC(C2)C1(C)C (stereo not drawn) [mecamylamine]
effect of nACh antagonist on ACh or nicotine-mediated inhibition of microglial TNF-α production [1]: significantly recovers | TNF-α release, antagonist plus LPS versus LPS alone ([1]; antagonist without agonist, […], LPS 100 ng/mL 4 hours, p>0.05): no significances

CN1CCCC1c1cccnc1 (stereo not drawn) [nicotine]
dose dependence of inhibition of microglial LPS-induced TNF-α production [1]: dose-dependently inhibits | LPS-induced TNF-α release ([1]; pre-stimulated 30 minutes at 5 μM, then LPS 100 ng/mL for 4 hours, p<0.01 vs LPS (FIG. 3A)): marked reduction | fluorescent intensity of FITC-labeled α-bungarotoxin binding (α7 nAChR subunit): marked reduction
